The target of test [1] is T1, JAK1 (Homo sapiens, UniProt P23458).
T1 construct: 5 μl of catalytic domain recombinant Kinase enzyme+Tyr peptide substrate (Invitrogen, Calif.); purchased Invitrogen
Put plainly: Z'-LYTE kinase assay, JAK1 tyrosine phosphorylation activity. It counts as biochemical. Particulars: read-out: JAK 1 IC50. Summed up:
(§1)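 Inhibition is expressed as substrate phosphorylation relative to inhibitor-free wells, fitted with a 4-parameter logistic model for IC50. Reactions contain catalytic-domain kinase, Tyr6 peptide and ATP, run 1 h at room temperature. Development protease is added for 1 h before fluorescence readout.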

In test [2] the target is T2, JAK2 (Homo sapiens, UniProt O60674).
T2 construct: 5 μl of catalytic domain recombinant Kinase enzyme+Tyr peptide substrate (Invitrogen, Calif.); purchased Invitrogen
Put plainly: Z'-LYTE kinase assay, JAK2 tyrosine phosphorylation activity. It counts as biochemical. Summed up:
as §1

Test [3] has as its target T3, JAK3 (Homo sapiens, UniProt P52333).
T3 construct: 5 μl of catalytic domain recombinant Kinase enzyme+Tyr peptide substrate (Invitrogen, Calif.); purchased Invitrogen
Put plainly: Z'-LYTE kinase assay, JAK3 tyrosine phosphorylation activity. In kind it is biochemical. In outline: as §1

The target of test [4] is T4, TYK2 (Homo sapiens, UniProt P29597).
T4 construct: 5 μl of catalytic domain recombinant Kinase enzyme+Tyr peptide substrate (Invitrogen, Calif.); purchased Invitrogen
T4 sequence (P29597 897-1176 limits assumed): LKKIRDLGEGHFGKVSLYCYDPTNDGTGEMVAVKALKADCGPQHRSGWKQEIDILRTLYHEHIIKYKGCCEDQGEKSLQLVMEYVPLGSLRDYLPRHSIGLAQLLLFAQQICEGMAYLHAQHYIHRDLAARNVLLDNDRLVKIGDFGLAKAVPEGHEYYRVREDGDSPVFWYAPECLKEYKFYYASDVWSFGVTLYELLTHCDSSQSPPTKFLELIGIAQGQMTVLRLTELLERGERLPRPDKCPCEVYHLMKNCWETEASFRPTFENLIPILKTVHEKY
Briefly: Z'-LYTE kinase assay, TYK2 tyrosine phosphorylation activity. In kind it is biochemical. In outline:
as §1

Test [5] relates to IL4-induced phospho STAT6 formation in Ramos B lymphocytes. Put plainly: Inhibition of IL4-induced phospho STAT6 formation in Ramos B lymphocytes (flow cytometry). In kind it is cell-based, human. Particulars: Homo sapiens; for inhibition at 0.2 µM: 200 nM compound, read-out: % Inhibition of IL-4 Induced STAT6 Phosphorylation 200 nM; for inhibition at 1 µM: 1 μM compound, read-out: % Inhibition of IL-4 Induced STAT6 Phosphorylation 1 μM. The text has this: Similar types of assays can be used to assess JAK inhibitory activity and to determine the degree of selectivity of the particular compound as compared to syk. One means of assaying for such inhibition is detection of the effect of the compounds of the present invention on the upregulation of downstream gene products. In the Ramos/IL4 assay, B-cells are stimulated with the cytokine Interleukin-4 (IL-4) leading to the activation of the JAK/Stat pathway through phosphorylation of the JAK family kinases, JAK1 and JAK3, which in turn phosphorylate and activate the transcription factor Stat-6. […] To study the effect of inhibitors (e.g., the 2,4-substituted pyrimindinediamine compounds described herein) on the JAK1 and JAK3, human Ramos B-cells are stimulated with human IL-4. 10′ post-stimulation, cells are subjected to intracellular flow cytometry to measure the extent of STAT-6 phosphorylation. 20 to 24 hours post-stimulation, cells are stained for upregulation of CD23 and analyzed using flow cytometry.
Inhibition of IL4-induced phospho STAT6 formation was measured by pre-incubating 0.5 million Ramos B lymphocytes (ATCC) with 5 μl compound or DMSO vehicle for 1 hour at 37° C./5% CO2. Cells were activated by addition of 1 ng/ml [f]IL4 (R & D Research Systems) for 10 min at 37° C./5% CO2 and then fixed by addition of 1.6% [f]PFA (Electron Microscopy Services). Following a PBS wash step and permaeabilization with 100% methanol, cells were incubated with ALEXA-conjugated anti-phosphoSTAT6 (Y641) antibody (BD 612600). The extent of cell associated-fluorescence was determined by flow cytomentry and data expressed as mean fluorescent intensity. The extent of inhibition of the IL4-induced signal was then calculated.
A general note: A flow cytometer gives signals particle by particle.

The text below walks through data of patent US8853230B2, “Inhibitors of JAK” (Portola Pharmaceuticals, Inc., priority 2009, dated 2014).

One may read the IC50 as the point on the concentration scale where inhibition reaches its midpoint. The inhibition is the relative decrease from the control value, in per cent.

T1 sequence (P23458 875-1153 limits assumed): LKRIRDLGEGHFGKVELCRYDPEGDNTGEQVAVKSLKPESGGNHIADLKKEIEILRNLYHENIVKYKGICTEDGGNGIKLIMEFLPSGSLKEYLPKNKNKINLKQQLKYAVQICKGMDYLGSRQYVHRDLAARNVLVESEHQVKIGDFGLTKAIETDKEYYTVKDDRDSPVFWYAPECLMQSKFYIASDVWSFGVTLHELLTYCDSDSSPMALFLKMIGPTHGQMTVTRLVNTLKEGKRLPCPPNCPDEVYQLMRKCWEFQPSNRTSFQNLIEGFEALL
T2 sequence (O60674 849-1124 limits assumed): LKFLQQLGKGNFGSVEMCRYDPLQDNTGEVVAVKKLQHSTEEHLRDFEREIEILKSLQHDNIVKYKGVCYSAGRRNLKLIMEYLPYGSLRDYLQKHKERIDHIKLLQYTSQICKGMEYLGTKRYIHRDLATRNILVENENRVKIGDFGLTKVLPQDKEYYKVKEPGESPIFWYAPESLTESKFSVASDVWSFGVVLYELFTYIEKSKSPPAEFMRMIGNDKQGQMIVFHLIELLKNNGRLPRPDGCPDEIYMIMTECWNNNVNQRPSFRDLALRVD
T3 sequence (P52333 822-1111 limits assumed): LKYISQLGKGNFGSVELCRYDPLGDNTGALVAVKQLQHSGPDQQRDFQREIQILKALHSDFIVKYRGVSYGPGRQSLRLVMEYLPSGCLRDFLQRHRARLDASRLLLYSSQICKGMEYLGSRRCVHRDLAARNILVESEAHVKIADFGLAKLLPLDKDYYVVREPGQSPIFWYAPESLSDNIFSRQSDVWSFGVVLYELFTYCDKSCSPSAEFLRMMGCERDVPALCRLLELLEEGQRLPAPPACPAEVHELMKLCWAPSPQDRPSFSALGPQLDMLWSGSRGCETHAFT

Regarding `CC(=O)Nc1cc(Nc2ncc(C(N)=O)c(NCc3ccccc3)n2)ccc1C` [Example 155, 2-(3-acetamido-4-methylphenylamino)-4-(benzylamino)pyrimidine-5-carboxamide], the IC50 is 10 to 100 nM in test [1], 10 to 100 nM in test [2], 1 to 10 nM in test [3] and 1 to 10 nM in test [4]. Moreover, the inhibition at 0.2 µM in test [5] came to 71.7%. In addition, in test [5], the inhibition at 1 µM was 88%.

Turning to `CC(=O)Nc1cc(Nc2ncc(C(N)=O)c(NCc3ccccc3)n2)ccc1F` [Example 156, 2-(3-acetamido-4-fluorophenylamino)-4-(benzylamino)pyrimidine-5-carboxamide], the IC50 in test [1] fell in the range of 10 to 100 nM; in test [2] it was 10 to 100 nM; in test [3] it was 1 to 10 nM; in test [4], 1 to 10 nM. The inhibition at 0.2 µM in test [5] stood at 28%. Also, in test [5], the inhibition at 1 µM was determined as 71.3%.

Consider `CNC(=O)Nc1cc(Nc2ncc(C(N)=O)c(NCc3ccccc3)n2)ccc1C` [Example 157, 4-(benzylamino)-2-(4-methyl-3-(3-methylureido)phenylamino)pyrimidine-5-carboxamide], for which the IC50 in test [1] was 10 to 100 nM; in test [2], 10 to 100 nM; in test [3], 1 to 10 nM; in test [4], 1 to 10 nM. Moreover, the inhibition at 0.2 µM in test [5] came to 23%. Moreover, the inhibition at 1 µM in test [5] was determined as 31.7%.

For the compound `COc1ccc(Nc2ncc(C(N)=O)c(NCc3ccccc3)n2)cc1NC(=O)N1CCCC1` [Example 163, 4-(benzylamino)-2-(4-methoxy-3-(pyrrolidine-1-carboxamido)phenylamino)pyrimidine-5-carboxamide], the IC50 in test [1] was 10 to 100 nM; in test [2], 10 to 100 nM; in test [3], 1 to 10 nM; in test [4], 1 to 10 nM. In addition, the inhibition at 0.2 µM in test [5] came out at 20.7%. In addition, the inhibition at 1 µM in test [5] came out at 61%.

Take `CNC(=O)Nc1cc(Nc2ncc(C(N)=O)c(NCc3ccccc3)n2)ccc1OC` [Example 164, 4-(benzylamino)-2-(4-methoxy-3-(3-methylureido)phenylamino)pyrimidine-5-carboxamide]: the IC50 lay within 10 to 100 nM in test [1], 10 to 100 nM in test [2], 1 to 10 nM in test [3] and 1 to 10 nM in test [4]. In test [5], the inhibition at 0.2 µM worked out at 34.7%. The inhibition at 1 µM in test [5] was 68.7%.

As to `CNC(=O)Nc1cc(Nc2ncc(C(N)=O)c(NCc3cccc(Cl)c3)n2)ccc1Cl` [Example 165, 2-(4-chloro-3-(3-methylureido)phenylamino)-4-(3-chlorobenzylamino)pyrimidine-5-carboxamide], the IC50 in test [1] is above 1000 nM; in test [2] it was 100 to 1000 nM; in test [3], 10 to 100 nM; in test [4], above 1000 nM. Also, the inhibition at 0.2 µM in test [5] was determined as 57.3%. Moreover, the inhibition at 1 µM in test [5] is 89.7%.

Take `NC(=O)c1cnc(Nc2cccc(NC(=O)N3CCCC3)c2)nc1NCc1ccccc1F` [Example 168, 4-(2-fluorobenzylamino)-2-(3-(pyrrolidine-1-carboxamido)phenylamino)pyrimidine-5-carboxamide]: the concentration for half-maximal inhibition (IC50) is 10 to 100 nM in test [1], 10 to 100 nM in test [2], 1 to 10 nM in test [3] and 1 to 10 nM in test [4]. Besides, in test [5], the inhibition at 0.2 µM was found to be 54%. Besides, in test [5], the inhibition at 1 µM was found to be 92%.

Regarding `CNC(=O)Nc1cc(Nc2ncc(C(N)=O)c(NCc3ccccc3F)n2)ccc1Cl` [Example 169, 2-(4-chloro-3-(3-methylureido)phenylamino)-4-(2-fluorobenzylamino)pyrimidine-5-carboxamide], the IC50 in test [1] lay within 100 to 1000 nM; in test [2], 100 to 1000 nM; in test [3] it was 1 to 10 nM; in test [4], 10 to 100 nM. Also, the inhibition at 0.2 µM in test [5] worked out at 3.3%. Further, the inhibition at 1 µM in test [5] was 16.7%.

Consider `NC(=O)c1cnc(Nc2ccc(Cl)c(NC(=O)N3CCCC3)c2)nc1NCc1ccccc1F` [Example 170, 2-(4-chloro-3-(pyrrolidine-1-carboxamido)phenylamino)-4-(2-fluorobenzylamino)pyrimidine-5-carboxamide], for which the IC50 is above 1000 nM in test [1], above 1000 nM in test [2], 1 to 10 nM in test [3] and 10 to 100 nM in test [4]. The inhibition at 0.2 µM in test [5] was found to be 5.7%. Besides, the inhibition at 1 µM in test [5] stood at 53.7%.

As for `CC(=O)Nc1ccc(F)c(Nc2ncc(C(N)=O)c(NCc3ccccc3)n2)c1` [Example 171, 2-(5-acetamido-2-fluorophenylamino)-4-(benzylamino)pyrimidine-5-carboxamide], the IC50 in test [1] lay within 100 to 1000 nM; in test [2] it was 100 to 1000 nM; in test [3], 10 to 100 nM; in test [4], 100 to 1000 nM. Also, the inhibition at 0.2 µM in test [5] came out at 7.3%. Also, the inhibition at 1 µM in test [5] worked out at 15.3%.

`COCC(=O)Nc1ccc(F)c(Nc2ncc(C(N)=O)c(NCc3ccccc3)n2)c1` [Example 172, 4-(benzylamino)-2-(2-fluoro-5-(2-methoxyacetamido)phenylamino)pyrimidine-5-carboxamide]: the IC50 in test [1] was in the range of 100 to 1000 nM; in test [2], 100 to 1000 nM; in test [3], 10 to 100 nM; in test [4], 100 to 1000 nM. Also, the inhibition at 0.2 µM in test [5] was 11.3%. For the same compound, the inhibition at 1 µM in test [5] was found to be 33%.

Consider `NC(=O)c1cnc(Nc2ccc(Cl)c(NC(=O)N3CCCC3)c2)nc1NCc1cccc(F)c1` [Example 177, 2-(4-chloro-3-(pyrrolidine-1-carboxamido)phenylamino)-4-(3-fluorobenzylamino)pyrimidine-5-carboxamide], for which the IC50 is above 1000 nM in test [1], 100 to 1000 nM in test [2], 1 to 10 nM in test [3] and 100 to 1000 nM in test [4]. In addition, the inhibition at 0.2 µM in test [5] stood at 2.3%. In addition, the inhibition at 1 µM in test [5] was 7.3%.

In the case of `NC(=O)c1cnc(Nc2cccc(NC(=O)N3CCCC3)c2)nc1NCc1cccc(F)c1` [Example 179, 4-(3-fluorobenzylamino)-2-(3-(pyrrolidine-1-carboxamido)phenylamino)pyrimidine-5-carboxamide], the IC50 lay within 10 to 100 nM in test [1], 10 to 100 nM in test [2], 1 to 10 nM in test [3] and 10 to 100 nM in test [4]. In test [5], the inhibition at 0.2 µM is 11.3%. The inhibition at 1 µM in test [5] was 10.7%.

Turning to `CNC(=O)Nc1cccc(Nc2ncc(C(N)=O)c(NCc3ccccc3F)n2)c1` [Example 181, 4-(2-fluorobenzylamino)-2-(3-(3-methylureido)phenylamino)pyrimidine-5-carboxamide], the IC50 fell in the range of 10 to 100 nM in test [1], 10 to 100 nM in test [2], 1 to 10 nM in test [3] and 1 to 10 nM in test [4]. In test [5], the inhibition at 0.2 µM came out at 23.7%. Besides, in test [5], the inhibition at 1 µM stood at 38.7%.

Consider `NC(=O)c1cnc(Nc2ccc(Cl)c(NC(=O)N3CCOCC3)c2)nc1NCc1ccccc1` [Example 182, N-(5-(4-(benzylamino)-5-carbamoylpyrimidin-2-ylamino)-2-chlorophenyl)morpholine-4-carboxamide], for which the IC50 in test [1] is 10 to 100 nM; in test [2], 10 to 100 nM; in test [3], 1 to 10 nM; in test [4], 1 to 10 nM. Further, the inhibition at 0.2 µM in test [5] is 42.3%. The inhibition at 1 µM in test [5] was found to be 89%.
